Measurements taken from ChEMBL document CHEMBL3102714 (J Med Chem, 2013).
Calls of active or inactive are those of the source. The calls are words filed in the database; no cut-off is given here. Where a SMILES comes first, the peptide text is derived from it.

Legend:
[1] = molecular target: T1, Neuronal acetylcholine receptor; alpha9/alpha10 (Homo sapiens, UniProt Q9GZZ6+Q9UGM1); assay: Inhibition of human alpha9alpha10 nAChR; assay type: protein-complex assay
[2] = molecular target: T2, Neuronal acetylcholine receptor; alpha3/beta4 (Homo sapiens, UniProt P30926+P32297); assay: Inhibition of human alpha3beta4 nAChR; assay type: protein-complex assay
[3] = molecular target: T3, Neuronal acetylcholine receptor; alpha3/beta2 (Homo sapiens, UniProt P17787+P32297); assay: Inhibition of human alpha3beta2 nAChR; assay type: protein-complex assay
[4] = molecular target: T4, Neuronal acetylcholine receptor subunit alpha-7 (Homo sapiens, UniProt P36544); assay: Inhibition of human alpha7 nAChR
[5] = molecular target: T4, Neuronal acetylcholine receptor subunit alpha-7; assay: Inhibition of alpha7 (unknown origin) nAChR
[6] = molecular target: T1, Neuronal acetylcholine receptor; alpha9/alpha10; assay: Inhibition of alpha9alpha10 (unknown origin) nAChR; assay type: protein-complex assay
[7] = molecular target: T5, Nicotinic acetylcholine receptor alpha6/alpha3/beta2/beta3 (Rattus norvegicus, UniProt P04757+P12390+P12391+P43143); assay: Inhibition of rat alpha6/alpha3beta2beta3 nAChR expressed in Xenopus laevis oocytes assessed as inhibition of ACh-induced current by voltage clamp electrophysiology method; assay type: cell-based
[8] = molecular target: Neuronal acetylcholine receptor; alpha2/beta2 (Rattus norvegicus, UniProt P12389+P12390); assay: Inhibition of rat alpha2beta2 nAChR expressed in Xenopus oocytes assessed as inhibition of ACh-induced current by voltage clamp electrophysiology method; assay type: cell-based
[9] = molecular target: Neuronal acetylcholine receptor subunit alpha-7 (Rattus norvegicus, UniProt Q05941); assay: Inhibition of rat alpha7 nAChR expressed in Xenopus oocytes assessed as inhibition of ACh-induced current by voltage clamp electrophysiology method; assay type: cell-based
[10] = molecular target: Neuronal acetylcholine receptor; alpha2/beta4 (Rattus norvegicus, UniProt P12389+P12392); assay: Inhibition of rat alpha2beta4 nAChR expressed in Xenopus oocytes assessed as inhibition of ACh-induced current by voltage clamp electrophysiology method; assay type: cell-based
[11] = molecular target: Neuronal acetylcholine receptor; alpha4/beta4 (Rattus norvegicus, UniProt P09483+P12392); assay: Inhibition of rat alpha4beta4 nAChR expressed in Xenopus oocytes assessed as inhibition of ACh-induced current by voltage clamp electrophysiology method; assay type: cell-based
[12] = molecular target: T6, Neuronal acetylcholine receptor; alpha3/beta4 (Rattus norvegicus, UniProt P04757+P12392); assay: Inhibition of rat alpha3beta4 nAChR expressed in Xenopus oocytes assessed as inhibition of ACh-induced current by voltage clamp electrophysiology method; assay type: cell-based
[13] = molecular target: Neuronal acetylcholine receptor; alpha3/beta2 (Rattus norvegicus, UniProt P04757+P12390); assay: Inhibition of rat alpha3beta2 nAChR expressed in Xenopus oocytes assessed as inhibition of ACh-induced current by voltage clamp electrophysiology method; assay type: cell-based
[14] = molecular target: Nicotinic acetylcholine receptor alpha6/alpha3/beta4 (Rattus norvegicus, UniProt P04757+P12392+P43143); assay: Inhibition of rat alpha6/alpha3beta4 nAChR expressed in Xenopus oocytes assessed as inhibition of ACh-induced current by voltage clamp electrophysiology method; assay type: cell-based
[15] = molecular target: T5, Nicotinic acetylcholine receptor alpha6/alpha3/beta2/beta3; assay: Inhibition of rat alpha6/alpha3beta2beta3 nAChR expressed in Xenopus oocytes assessed as inhibition of ACh-induced current by voltage clamp electrophysiology method; assay type: cell-based
[16] = molecular target: Nicotinic acetylcholine receptor alpha9/alpha10 (Rattus norvegicus, UniProt P43144+Q9JLB5); assay: Inhibition of recombinant rat alpha9alpha10 nAChR expressed in Xenopus laevis oocytes assessed as inhibition of ACh-induced current by voltage clamp electrophysiology method; assay type: cell-based
[17] = molecular target: Nicotinic acetylcholine receptor alpha9/alpha10 (Rattus norvegicus) (UniProt P43144+Q9JLB5); assay: Inhibition of rat alpha9alpha10 nAChR expressed in Xenopus laevis oocytes assessed as inhibition of ACh-induced current at 10 uM after 2 to 4 days by voltage clamp electrophysiology method; assay type: cell-based
[18] = molecular target: Neuronal acetylcholine receptor subunit alpha-7 (Rattus norvegicus) (UniProt Q05941); assay: Inhibition of rat alpha7 nAChR expressed in Xenopus laevis assessed as inhibition of ACh-induced current at 10 uM after 2 to 4 days by voltage clamp electrophysiology method
[19] = molecular target: Neuronal acetylcholine receptor; alpha4/beta4 (Rattus norvegicus) (UniProt P09483+P12392); assay: Inhibition of rat alpha4beta4 nAChR expressed in Xenopus laevis oocytes assessed as inhibition of ACh-induced current at 10 uM after 2 to 4 days by voltage clamp electrophysiology method; assay type: cell-based
[20] = molecular target: Neuronal acetylcholine receptor; alpha3/beta2 (Rattus norvegicus) (UniProt P04757+P12390); assay: Inhibition of rat alpha3beta2 nAChR expressed in Xenopus laevis oocytes assessed as inhibition of ACh-induced current at 10 uM after 2 to 4 days by voltage clamp electrophysiology method; assay type: cell-based
[21] = molecular target: Neuronal acetylcholine receptor; alpha3/beta4 (Rattus norvegicus) (UniProt P04757+P12392); assay: Inhibition of rat alpha3beta4 nAChR expressed in Xenopus laevis oocytes assessed as inhibition of ACh-induced current at 1 uM after 2 to 4 days by voltage clamp electrophysiology method; assay type: cell-based
[22] = molecular target: Neuronal acetylcholine receptor; alpha9/alpha10 (Homo sapiens) (UniProt Q9UGM1+Q9GZZ6); assay: Inhibition of alpha9alpha10 nAChR (unknown origin) expressed in Xenopus laevis oocytes at 1 uM by voltage clamp electrophysiology method; assay type: cell-based
[23] = molecular target: T4, Neuronal acetylcholine receptor subunit alpha-7; assay: Inhibition of alpha7 nAChR (unknown origin) expressed in Xenopus laevis oocytes at 1 uM by two-electrode voltage clamp method; assay type: cell-based
[24] = molecular target: T2, Neuronal acetylcholine receptor; alpha3/beta4; assay: Inhibition of alpha3beta4 nAChR (unknown origin) expressed in Xenopus laevis oocytes at 1uM by two-electrode voltage clamp method; assay type: cell-based
[25] = molecular target: T3, Neuronal acetylcholine receptor; alpha3/beta2; assay: Inhibition of alpha3beta2 nAChR (unknown origin) expressed in Xenopus laevis oocytes at 1uM by two-electrode voltage clamp method; assay type: cell-based
[26] = molecular target: T4, Neuronal acetylcholine receptor subunit alpha-7; assay: Inhibition of alpha7 nAChR (unknown origin) expressed in Xenopus laevis oocytes by two-electrode voltage clamp method; assay type: cell-based
[27] = molecular target: T2, Neuronal acetylcholine receptor; alpha3/beta4; assay: Inhibition of alpha3beta4 nAChR (unknown origin) expressed in Xenopus laevis oocytes by two-electrode voltage clamp method; assay type: cell-based
[28] = molecular target: T3, Neuronal acetylcholine receptor; alpha3/beta2; assay: Inhibition of alpha3beta2 nAChR (unknown origin) expressed in Xenopus laevis oocytes by two-electrode voltage clamp method; assay type: cell-based
[29] = molecular target: T6, Neuronal acetylcholine receptor; alpha3/beta4; assay: Inhibition of rat alpha3beta4 nAChR expressed in Xenopus laevis oocytes assessed as inhibition of ACh-induced current after 2 to 4 days by voltage clamp electrophysiology method; assay type: cell-based

T4 sequence (P36544 whole entry): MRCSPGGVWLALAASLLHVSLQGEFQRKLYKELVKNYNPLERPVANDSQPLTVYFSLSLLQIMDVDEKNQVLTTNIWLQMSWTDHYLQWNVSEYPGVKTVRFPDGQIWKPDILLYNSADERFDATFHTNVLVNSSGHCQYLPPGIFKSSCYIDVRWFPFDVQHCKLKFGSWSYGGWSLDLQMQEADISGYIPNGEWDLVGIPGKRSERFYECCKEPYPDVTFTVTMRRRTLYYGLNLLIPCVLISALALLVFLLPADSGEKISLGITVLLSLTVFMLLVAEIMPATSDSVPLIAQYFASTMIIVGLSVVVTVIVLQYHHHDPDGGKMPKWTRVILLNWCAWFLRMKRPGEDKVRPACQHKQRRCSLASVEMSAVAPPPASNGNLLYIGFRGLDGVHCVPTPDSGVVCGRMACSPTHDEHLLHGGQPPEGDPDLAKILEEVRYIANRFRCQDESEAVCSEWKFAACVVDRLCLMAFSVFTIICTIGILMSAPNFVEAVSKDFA
T6 sequence (P04757 whole entry): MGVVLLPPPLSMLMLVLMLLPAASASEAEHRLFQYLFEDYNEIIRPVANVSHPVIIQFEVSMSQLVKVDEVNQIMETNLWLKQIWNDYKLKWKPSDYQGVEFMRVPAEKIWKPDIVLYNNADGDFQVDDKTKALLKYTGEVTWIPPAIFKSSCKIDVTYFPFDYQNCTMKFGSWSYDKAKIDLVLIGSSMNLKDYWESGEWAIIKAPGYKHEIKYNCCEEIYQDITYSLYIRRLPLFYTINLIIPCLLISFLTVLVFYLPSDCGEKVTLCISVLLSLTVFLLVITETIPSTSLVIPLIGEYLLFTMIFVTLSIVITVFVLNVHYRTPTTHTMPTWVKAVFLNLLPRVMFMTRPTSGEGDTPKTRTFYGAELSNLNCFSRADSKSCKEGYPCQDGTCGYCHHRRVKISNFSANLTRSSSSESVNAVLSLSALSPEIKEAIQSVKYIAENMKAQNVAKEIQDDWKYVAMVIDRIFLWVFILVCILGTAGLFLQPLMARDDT
T6 sequence (P12392 whole entry): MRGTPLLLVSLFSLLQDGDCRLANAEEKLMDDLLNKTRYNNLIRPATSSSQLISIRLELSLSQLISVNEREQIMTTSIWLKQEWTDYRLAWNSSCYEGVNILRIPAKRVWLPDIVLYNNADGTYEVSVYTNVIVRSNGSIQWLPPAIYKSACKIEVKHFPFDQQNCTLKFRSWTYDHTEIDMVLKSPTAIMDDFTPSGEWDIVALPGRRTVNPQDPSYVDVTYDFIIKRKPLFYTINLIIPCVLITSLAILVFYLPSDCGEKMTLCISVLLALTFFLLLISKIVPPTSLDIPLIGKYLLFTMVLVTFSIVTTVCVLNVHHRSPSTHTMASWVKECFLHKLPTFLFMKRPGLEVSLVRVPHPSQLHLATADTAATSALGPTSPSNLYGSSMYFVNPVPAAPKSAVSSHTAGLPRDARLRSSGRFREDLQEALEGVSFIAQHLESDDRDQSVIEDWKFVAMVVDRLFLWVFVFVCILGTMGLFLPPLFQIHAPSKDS
T5 sequence (P04757 whole entry): as the sequence (P04757 whole entry) above
T5 sequence (P12390 whole entry): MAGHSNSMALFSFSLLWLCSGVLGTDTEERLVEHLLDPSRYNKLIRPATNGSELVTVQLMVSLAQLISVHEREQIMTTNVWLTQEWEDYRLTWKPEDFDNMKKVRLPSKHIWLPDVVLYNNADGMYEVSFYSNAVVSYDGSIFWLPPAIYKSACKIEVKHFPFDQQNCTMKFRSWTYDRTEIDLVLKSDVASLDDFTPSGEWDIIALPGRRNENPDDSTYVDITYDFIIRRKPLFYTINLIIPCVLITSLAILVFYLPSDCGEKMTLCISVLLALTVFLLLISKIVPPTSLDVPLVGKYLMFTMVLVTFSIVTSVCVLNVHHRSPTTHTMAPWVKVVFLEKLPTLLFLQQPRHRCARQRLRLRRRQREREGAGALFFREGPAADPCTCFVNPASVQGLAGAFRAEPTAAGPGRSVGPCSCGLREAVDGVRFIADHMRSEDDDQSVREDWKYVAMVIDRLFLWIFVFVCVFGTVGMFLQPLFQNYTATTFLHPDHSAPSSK
T5 sequence (P12391 whole entry): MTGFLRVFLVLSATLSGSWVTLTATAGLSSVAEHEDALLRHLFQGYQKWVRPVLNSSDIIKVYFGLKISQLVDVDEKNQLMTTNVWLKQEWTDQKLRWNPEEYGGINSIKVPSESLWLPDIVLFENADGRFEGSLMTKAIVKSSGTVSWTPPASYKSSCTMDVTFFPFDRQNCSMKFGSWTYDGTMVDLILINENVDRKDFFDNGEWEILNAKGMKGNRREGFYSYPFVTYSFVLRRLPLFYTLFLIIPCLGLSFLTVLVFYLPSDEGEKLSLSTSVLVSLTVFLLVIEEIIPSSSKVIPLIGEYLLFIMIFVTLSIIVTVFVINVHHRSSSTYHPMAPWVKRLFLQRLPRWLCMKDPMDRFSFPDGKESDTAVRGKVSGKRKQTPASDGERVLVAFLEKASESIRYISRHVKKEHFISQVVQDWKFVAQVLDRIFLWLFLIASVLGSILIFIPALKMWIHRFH
T5 sequence (P43143 whole entry): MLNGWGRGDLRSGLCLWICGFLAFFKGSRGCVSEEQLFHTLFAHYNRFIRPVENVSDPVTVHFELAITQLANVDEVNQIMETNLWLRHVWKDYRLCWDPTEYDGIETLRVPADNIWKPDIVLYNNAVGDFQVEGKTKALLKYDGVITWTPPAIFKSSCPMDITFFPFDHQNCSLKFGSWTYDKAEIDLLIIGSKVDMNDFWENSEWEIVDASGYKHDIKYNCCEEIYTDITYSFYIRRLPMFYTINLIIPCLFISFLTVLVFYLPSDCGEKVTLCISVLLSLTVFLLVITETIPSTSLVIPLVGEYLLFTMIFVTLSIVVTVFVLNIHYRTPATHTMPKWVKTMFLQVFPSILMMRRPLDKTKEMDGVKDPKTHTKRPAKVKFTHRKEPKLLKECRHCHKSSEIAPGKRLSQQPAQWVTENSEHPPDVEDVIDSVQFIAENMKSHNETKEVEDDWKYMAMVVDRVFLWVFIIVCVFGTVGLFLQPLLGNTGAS
T2 sequence (P30926 whole entry): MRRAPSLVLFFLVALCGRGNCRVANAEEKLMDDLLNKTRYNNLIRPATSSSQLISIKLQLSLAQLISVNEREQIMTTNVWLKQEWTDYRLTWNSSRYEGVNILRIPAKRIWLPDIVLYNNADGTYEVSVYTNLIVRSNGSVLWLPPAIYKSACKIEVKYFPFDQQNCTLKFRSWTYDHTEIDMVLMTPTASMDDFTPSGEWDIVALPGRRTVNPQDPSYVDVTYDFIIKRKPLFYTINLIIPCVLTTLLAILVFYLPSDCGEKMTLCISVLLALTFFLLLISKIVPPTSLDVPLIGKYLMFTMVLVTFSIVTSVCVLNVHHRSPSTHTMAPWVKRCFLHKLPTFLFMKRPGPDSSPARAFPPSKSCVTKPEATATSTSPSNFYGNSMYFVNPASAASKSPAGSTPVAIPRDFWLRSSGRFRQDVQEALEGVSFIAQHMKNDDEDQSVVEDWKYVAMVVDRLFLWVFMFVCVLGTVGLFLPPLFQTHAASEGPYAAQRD
T2 sequence (P32297 whole entry): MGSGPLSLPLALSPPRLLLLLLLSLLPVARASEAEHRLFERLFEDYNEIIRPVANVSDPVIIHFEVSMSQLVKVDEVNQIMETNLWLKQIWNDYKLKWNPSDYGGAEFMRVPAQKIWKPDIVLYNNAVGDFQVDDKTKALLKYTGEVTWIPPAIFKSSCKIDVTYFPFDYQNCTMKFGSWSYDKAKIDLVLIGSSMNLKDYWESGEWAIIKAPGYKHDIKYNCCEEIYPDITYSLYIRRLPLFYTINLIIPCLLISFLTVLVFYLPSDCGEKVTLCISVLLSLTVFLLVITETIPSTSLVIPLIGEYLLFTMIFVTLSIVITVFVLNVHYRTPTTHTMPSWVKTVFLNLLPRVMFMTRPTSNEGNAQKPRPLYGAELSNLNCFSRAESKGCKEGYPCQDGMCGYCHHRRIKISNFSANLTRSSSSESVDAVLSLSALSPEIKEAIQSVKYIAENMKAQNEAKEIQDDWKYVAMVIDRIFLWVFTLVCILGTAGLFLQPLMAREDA
T1 sequence (Q9UGM1 whole entry): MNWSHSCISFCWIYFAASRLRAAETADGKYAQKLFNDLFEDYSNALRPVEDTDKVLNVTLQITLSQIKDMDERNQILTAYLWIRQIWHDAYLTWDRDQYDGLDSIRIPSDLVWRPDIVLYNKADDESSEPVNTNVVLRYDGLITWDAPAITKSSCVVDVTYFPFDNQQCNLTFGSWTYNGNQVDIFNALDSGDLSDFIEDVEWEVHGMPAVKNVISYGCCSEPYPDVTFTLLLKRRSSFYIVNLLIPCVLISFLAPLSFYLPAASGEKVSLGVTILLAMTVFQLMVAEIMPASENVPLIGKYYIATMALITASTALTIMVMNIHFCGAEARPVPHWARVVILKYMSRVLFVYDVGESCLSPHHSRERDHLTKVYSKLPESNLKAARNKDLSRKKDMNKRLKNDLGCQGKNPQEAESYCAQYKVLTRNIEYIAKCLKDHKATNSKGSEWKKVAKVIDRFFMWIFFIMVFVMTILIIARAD
T1 sequence (Q9GZZ6 whole entry): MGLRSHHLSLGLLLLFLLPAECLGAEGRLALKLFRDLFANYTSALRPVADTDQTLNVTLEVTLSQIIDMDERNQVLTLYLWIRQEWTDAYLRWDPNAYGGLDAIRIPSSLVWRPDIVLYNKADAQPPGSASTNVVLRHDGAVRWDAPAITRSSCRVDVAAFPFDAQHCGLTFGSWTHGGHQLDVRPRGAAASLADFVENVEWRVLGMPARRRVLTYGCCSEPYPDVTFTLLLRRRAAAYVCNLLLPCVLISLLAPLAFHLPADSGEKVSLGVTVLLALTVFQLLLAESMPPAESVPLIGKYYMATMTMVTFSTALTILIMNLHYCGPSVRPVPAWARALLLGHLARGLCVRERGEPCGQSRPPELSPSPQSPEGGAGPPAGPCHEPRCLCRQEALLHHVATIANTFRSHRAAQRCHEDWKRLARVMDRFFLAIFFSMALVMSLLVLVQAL

Structure (SMILES): C[C@@H]1NC(=O)[C@@H]2CSSC[C@H](NC(=O)CN)C(=O)N[C@@H](CSSC[C@@H](C(N)=O)NC(=O)[C@H](CCCNC(=N)N)NC(=O)[C@H](Cc3c[nH]c4ccccc34)NC1=O)C(=O)N[C@@H](CO)C(=O)N[C@@H](CC(=O)O)C(=O)N1CCC[C@H]1C(=O)N[C@@H](CCCNC(=N)N)C(=O)N2
- IC50 [1]: 2 µM
- IC50 [2]: 3.39 µM
- IC50 [3]: 0.041 µM
- IC50 [4]: 0.595 µM

Structure (SMILES): NCC(=O)N[C@H]1CSSC[C@@H]2NC(=O)[C@H](CCCN=C(N)N)NC(=O)[C@@H]3CCCN3C(=O)[C@H](CC(=O)O)NC(=O)[C@H](CO)NC(=O)[C@H](CSSC[C@@H](C(=O)N[C@@H](CCCN=C(N)N)C(N)=O)NC(=O)[C@H](CCCN=C(N)N)NC(=O)[C@H](Cc3ccc(O)cc3)NC(=O)[C@H](CCCN=C(N)N)NC2=O)NC1=O
- IC50 [5]: 4.7 µM
- IC50 [6]: 0.0052 µM

Structure (SMILES): [H][C@@]12CCCN1C(=O)[C@H](Cc1cnc[nH]1)NC(=O)[C@H](CCCCN)NC(=O)[C@H](CC(N)=O)NC(=O)[C@H](CCCNC(=N)N)NC(=O)[C@]1([H])CSSC[C@H](NC(=O)CN)C(=O)N[C@@]([H])(CSSC[C@@H](C(N)=O)NC(=O)[C@H](CC(C)C)NC(=O)[C@H](CC(=O)O)NC2=O)C(=O)N[C@@H](CO)C(=O)N[C@@H](CC(=O)O)C(=O)N2CCC[C@@]2([H])C(=O)N2CCC[C@@]2([H])C(=O)N1 (HELM PEPTIDE1{G.C.C.S.D.P.P.C.R.N.K.H.P.D.L.C.[am]}$PEPTIDE1,PEPTIDE1,2:R3-8:R3|PEPTIDE1,PEPTIDE1,3:R3-16:R3$$$V2.0)
- IC50 [7]: 0.0284 µM

Structure (SMILES): [H][C@@]12CCCN1C(=O)[C@]1([H])CCCN1C(=O)[C@]([H])([C@@H](C)O)NC(=O)[C@H](CO)NC(=O)[C@]1([H])CSSC[C@@H](C(N)=O)NC(=O)[C@H](Cc3ccc(O)cc3)NC(=O)[C@H](CC(C)C)NC(=O)[C@H](C(C)C)NC(=O)[C@H](C)NC(=O)[C@]([H])(CSSC[C@H](NC(=O)CN)C(=O)N1)NC2=O (HELM PEPTIDE1{G.C.C.S.T.P.P.C.A.V.L.Y.C.[am]}$PEPTIDE1,PEPTIDE1,2:R3-8:R3|PEPTIDE1,PEPTIDE1,3:R3-13:R3$$$V2.0)
- IC50 [8]: 0.8 µM
- IC50 [9]: 0.272 µM
- IC50 [10]: 0.121 µM
- IC50 [11]: 0.0699 µM
- IC50 [12]: 0.0277 µM
- IC50 [13]: 0.00572 µM
- IC50 [14]: 0.00154 µM
- IC50 [15]: 0.00026 µM

Structure (SMILES): CC(C)C[C@@H]1NC(=O)[C@H](CCC(=O)O)NC(=O)[C@@H]2CCCN2C(=O)[C@H](Cc2cnc[nH]2)NC(=O)[C@H](CC(N)=O)NC(=O)[C@H](C(C)C)NC(=O)[C@H](CO)NC(=O)[C@@H]2CSSC[C@H](NC(=O)CN)C(=O)N[C@@H](CSSC[C@@H](C(N)=O)NC1=O)C(=O)N[C@@H](CO)C(=O)N[C@@H](Cc1cnc[nH]1)C(=O)N1CCC[C@H]1C(=O)N[C@@H](C)C(=O)N2 (HELM PEPTIDE1{G.C.C.S.H.P.A.C.S.V.N.H.P.E.L.C.[am]}$PEPTIDE1,PEPTIDE1,2:R3-8:R3|PEPTIDE1,PEPTIDE1,3:R3-16:R3$$$V2.0)
- IC50 [16]: 0.0069 µM

Structure (SMILES): CC[C@H](C)[C@@H]1NC(=O)[C@@H]2CCCN2C(=O)[C@H](CO)NC(=O)[C@H](CCSC)NC(=O)[C@H](C)NC(=O)[C@H](CO)NC(=O)[C@@H]2CSSC[C@H](NC(=O)CN)C(=O)N[C@@H](CSSC[C@@H](C(N)=O)NC1=O)C(=O)N[C@@H](CO)C(=O)N[C@@H](Cc1cnc[nH]1)C(=O)N1CCC[C@H]1C(=O)N[C@@H](C(C)C)C(=O)N2
- inhibition [17]: inactive
- inhibition [18]: inactive
- inhibition [19]: inactive
- inhibition [20]: inactive
- inhibition [21]: Active

Structure (SMILES): CC[C@H](C)[C@@H]1NC(=O)[C@H](Cc2cnc[nH]2)NC(=O)[C@@H]2CCCN2C(=O)[C@H](CC(N)=O)NC(=O)[C@H](CC(N)=O)NC(=O)[C@H](C(C)C)NC(=O)[C@H](CC(N)=O)NC(=O)[C@@H]2CSSC[C@H](NC(=O)CN)C(=O)N[C@@H](CSSC[C@@H](C(N)=O)NC1=O)C(=O)N[C@@H](CO)C(=O)N[C@@H](Cc1cnc[nH]1)C(=O)N1CCC[C@H]1C(=O)N[C@@H](C)C(=O)N2 (HELM PEPTIDE1{G.C.C.S.H.P.A.C.N.V.N.N.P.H.I.C.[am]}$PEPTIDE1,PEPTIDE1,2:R3-8:R3|PEPTIDE1,PEPTIDE1,3:R3-16:R3$$$V2.0)
- inhibition [22]: 22%
- inhibition [23]: Active
- inhibition [24]: Active
- inhibition [25]: Active
- IC50 [26]: 0.103 µM
- IC50 [27]: 0.097 µM
- IC50 [28]: 0.033 µM

Structure (SMILES): C[C@@H]1NC(=O)[C@H](Cc2ccccc2)NC(=O)[C@@H]2CSSC[C@@H](NC(=O)CN)C(=O)N[C@@H](CSSC[C@@H](C(N)=O)NC(=O)[C@H](CC(=O)O)NC(=O)[C@@H]3CCCN3C(=O)[C@H](CC(N)=O)NC(=O)[C@H]([C@@H](C)O)NC1=O)C(=O)N[C@@H](CO)C(=O)N[C@@H](Cc1ccc(O)cc1)C(=O)N1CCC[C@H]1C(=O)N1CCC[C@H]1C(=O)N2
- IC50 [29]: 0.75 µM
